Measurements: patent publication US11292821B2, “Peptides and combination of peptides for use in immunotherapy against lung cancer, including NSCLC, SCLC and other cancers” (Immatics Biotechnologies GmbH, priority 2017, dated 2022)

tested on: HLA-A*01; test: MHC binding assay (UV-ligand exchange, β2m ELISA); design: species or system human
Description: Candidate peptides for T cell based therapies according to the present invention were further tested for their MHC binding capacity (affinity). The individual peptide-MHC complexes were produced by UV-ligand exchange, where a UV-sensitive peptide is cleaved upon UV-irradiation, and exchanged with the peptide of interest as analyzed. Only peptide candidates that can effectively bind and stabilize the peptide-receptive MHC molecules prevent dissociation of the MHC complexes. To determine the yield of the exchange reaction, an ELISA was performed based on the detection of the light chain (β2m) of stabilized MHC complexes. The assay was performed as generally described in Rodenko et al. (Rodenko et al., 2006).
96 well MAXISorp plates (NUNC) were coated over night with 2 ug/ml streptavidin in PBS at room temperature, washed 4× and blocked for 1 h at 37° C. in 2% BSA containing blocking buffer. […] Peptide-MHC monomers of the UV-exchange reaction were diluted 100-fold in blocking buffer. Samples were incubated for 1 h at 37° C., washed four times, incubated with 2 ug/ml HRP conjugated anti-β2m for 1h at 37° C., washed again and detected with TMB solution that is stopped with […]. Absorption was measured at 450 nm. Candidate peptides that show a high exchange yield (preferably higher than 50%, most preferred higher than 75%) are generally preferred for a generation and production of antibodies or fragments thereof, and/or T cell receptors or fragments thereof, as they show sufficient avidity to the MHC molecules and prevent dissociation of the MHC complexes.

| Substance | Peptide exchange (peptide exchange yield, MHC class I binding score) |
| --- | --- |
| 172 (RTDSCSSAQAQY; listed as Homo sapiens) [compound 172] | “+++” (>50 = +++) |
| 176 (SRTINVSNLY; listed as Homo sapiens) [compound 176] | “+++” (>50 = +++) |
| 177 (SSDEVNFLVY; listed as Homo sapiens) [compound 177] | “++++” (>75% = ++++) |
| 178 (SSDSSTLPKL; listed as Homo sapiens) [compound 178] | “++” (>20% = ++) |
| 179 (STAKSATWTY; listed as Homo sapiens) [compound 179] | “++++” (>75% = ++++) |
| 180 (STDPWIQMAY; listed as Homo sapiens) [compound 180] | “++++” (>75% = ++++) |
| 181 (TADGKTYYY; listed as Homo sapiens) [compound 181] | “+++” (>50 = +++) |
| 182 (TDYHVRVY; listed as Homo sapiens) [compound 182] | “+++” (>50 = +++) |
| 183 (TLEDIATSHLY; listed as Homo sapiens) [compound 183] | “++++” (>75% = ++++) |
| 184 (TSAHPEDSSFY; listed as Homo sapiens) [compound 184] | “+++” (>50 = +++) |
| 186 (TTDIIEKY; listed as Homo sapiens) [compound 186] | “+++” (>50 = +++) |
| 188 (VSDAKLDKY; listed as Homo sapiens) [compound 188] | “+++” (>50 = +++) |
| 190 (VTDGINPLIDRY; listed as Homo sapiens) [compound 190] | “+++” (>50 = +++) |
| 191 (VTDGSLYEGVAY; listed as Homo sapiens) [compound 191] | “++++” (>75% = ++++) |
| 192 (VTEESFDSKFY; listed as Homo sapiens) [compound 192] | “++++” (>75% = ++++) |
| 194 (VVADTKMIEY; listed as Homo sapiens) [compound 194] | “+” (>10% = +) |
| 195 (VVDSVGGYLY; listed as Homo sapiens) [compound 195] | “++++” (>75% = ++++) |
| 196 (WMFFVINY; listed as Homo sapiens) [compound 196] | “+” (>10% = +) |
| 197 (YADTVRPEFY; listed as Homo sapiens) [compound 197] | “+++” (>50 = +++) |
| 198 (YLDPVQRDLY; listed as Homo sapiens) [compound 198] | “++++” (>75% = ++++) |
| 199 (YLPQHTIETY; listed as Homo sapiens) [compound 199] | “++” (>20% = ++) |

| Substance | Peptide exchange (peptide exchange yield, MHC class I binding score) |
| --- | --- |
| 200 (YSDEDVTKY; listed as Homo sapiens) [compound 200] | “++++” (>75% = ++++) |
| 394 (ASEAEMRLFY; listed as Homo sapiens) [compound 394] | “++++” (>75% = ++++) |
| 396 (ASEFGNHYLY; listed as Homo sapiens) [compound 396] | “++++” (>75% = ++++) |
| 397 (ASEITSKGASLY; listed as Homo sapiens) [compound 397] | “++++” (>75% = ++++) |
| 399 (ATDIPCLLY; listed as Homo sapiens) [compound 399] | “++++” (>75% = ++++) |
| 400 (ATDISRQNEY; listed as Homo sapiens) [compound 400] | “+++” (>50 = +++) |
| 401 (DSDESYMEKSLY; listed as Homo sapiens) [compound 401] | “++++” (>75% = ++++) |
| 402 (DTDSQRLAY; listed as Homo sapiens) [compound 402] | “+++” (>50 = +++) |
| 403 (ELDSKVEVLTY; listed as Homo sapiens) [compound 403] | “+++” (>50 = +++) |
| 404 (ETARKFLYY; listed as Homo sapiens) [compound 404] | “++++” (>75% = ++++) |
| 406 (ETEQTKFWDY; listed as Homo sapiens) [compound 406] | “++++” (>75% = ++++) |
| 407 (FSDNDKLYLY; listed as Homo sapiens) [compound 407] | “++++” (>75% = ++++) |
| 408 (FTEQWTDGY; listed as Homo sapiens) [compound 408] | “+++” (>50 = +++) |
| 409 (FVDPLVTNY; listed as Homo sapiens) [compound 409] | “++++” (>75% = ++++) |
| 410 (GSDHQSPSSSSY; listed as Homo sapiens) [compound 410] | “++++” (>75% = ++++) |
| 411 (GTVYEDLRY; listed as Homo sapiens) [compound 411] | “++++” (>75% = ++++) |
| 412 (ILDEVIMGY; listed as Homo sapiens) [compound 412] | “++++” (>75% = ++++) |
| 413 (ISDRYYTALY; listed as Homo sapiens) [compound 413] | “++++” (>75% = ++++) |
| 414 (KTDESLTKY; listed as Homo sapiens) [compound 414] | “+++” (>50 = +++) |
| 415 (LLDPRSYHTY; listed as Homo sapiens) [compound 415] | “+++” (>50 = +++) |
| 416 (LLDTAQKNLY; listed as Homo sapiens) [compound 416] | “++++” (>75% = ++++) |

| Substance | Peptide exchange (peptide exchange yield, MHC class I binding score) |
| --- | --- |
| 417 (LLEDKHFQSY; listed as Homo sapiens) [compound 417] | “++++” (>75% = ++++) |
| 418 (LSDPSGPKSY; listed as Homo sapiens) [compound 418] | “+++” (>50 = +++) |
| 419 (LSELKPMSY; listed as Homo sapiens) [compound 419] | “++++” (>75% = ++++) |
| 420 (LTEDKETLQY; listed as Homo sapiens) [compound 420] | “++++” (>75% = ++++) |
| 421 (LTELLERAAFY; listed as Homo sapiens) [compound 421] | “++++” (>75% = ++++) |
| 422 (MIDVTKSYY; listed as Homo sapiens) [compound 422] | “++++” (>75% = ++++) |
| 423 (NLDAVHDITVAY; listed as Homo sapiens) [compound 423] | “++++” (>75% = ++++) |
| 424 (NLDEEKQLLY; listed as Homo sapiens) [compound 424] | “+++” (>50 = +++) |
| 425 (NLDIIQQEY; listed as Homo sapiens) [compound 425] | “++++” (>75% = ++++) |
| 426 (NLDQATRVAY; listed as Homo sapiens) [compound 426] | “+++” (>50 = +++) |
| 427 (NSDEQKITEMVY; listed as Homo sapiens) [compound 427] | “++++” (>75% = ++++) |
| 428 (NSELSCQLY; listed as Homo sapiens) [compound 428] | “++++” (>75% = ++++) |
| 429 (NTEDSSMSGYLY; listed as Homo sapiens) [compound 429] | “++++” (>75% = ++++) |
| 431 (NTSDMMGRMSY; listed as Homo sapiens) [compound 431] | “++++” (>75% = ++++) |
| 432 (NVDPVQHTY; listed as Homo sapiens) [compound 432] | “+++” (>50 = +++) |
| 433 (QIDTGENLY; listed as Homo sapiens) [compound 433] | “++++” (>75% = ++++) |
| 434 (QTDCAPNNGY; listed as Homo sapiens) [compound 434] | “++++” (>75% = ++++) |
| 435 (QTDDTWRTEY; listed as Homo sapiens) [compound 435] | “++++” (>75% = ++++) |
| 437 (STDGKHWWEY; listed as Homo sapiens) [compound 437] | “++++” (>75% = ++++) |
| 438 (STDNFNCKY; listed as Homo sapiens) [compound 438] | “+++” (>50 = +++) |
